Assay results: the supplement of paper PMC8612539
Converted amounts (≈) assume the structure as drawn.

Test system: Histophilus somni
Assay: minimum inhibitory concentration (MIC)
Method: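 Broth microdilution MIC (Sensititre BOPO7F bovine plate, CLSI methods) of 19 antimicrobials against field isolates of P. multocida, M. haemolytica, H. somni (deep nasopharyngeal swabs) and E. coli, Enterococcus spp. (rectal swabs) from weaned dairy heifers. Incubation 16-24 h at 35 C. MIC is the lowest concentration preventing visible growth. Values with <= or > lie at the tested range limits. Trimethoprim-sulfamethoxazole is given as the trimethoprim component of a 1:19 mixture.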

CC[C@H]1OC(=O)C[C@@H](O)[C@H](C)[C@@H](O[C@@H]2O[C@H](C)[C@@H](O)[C@H](N(C)C)[C@H]2O)[C@@H](CCN2C[C@H](C)C[C@H](C)C2)C[C@@H](C)C(=O)/C=C/C(C)=C/[C@@H]1CO[C@@H]1O[C@H](C)[C@@H](O)[C@@H](OC)[C@H]1OC [Tilmicosin]
Conditions | minimum inhibitory concentration [µg/mL]
isolate (source animal id): 3 | 8 (≈ 9.2 µM)
isolate (source animal id): 4 | ≤ 2
isolate (source animal id): 7 | ≤ 2
isolate (source animal id): 14 | ≤ 2
isolate (source animal id): 15 | 8 (≈ 9.2 µM)
isolate (source animal id): 17 | ≤ 2
isolate (source animal id): 18 | 4 (≈ 4.6 µM)
isolate (source animal id): 20 | ≤ 2
isolate (source animal id): 23 | 4 (≈ 4.6 µM)
isolate (source animal id): 45 | 8 (≈ 9.2 µM)
isolate (source animal id): 53 | 8 (≈ 9.2 µM)
isolate (source animal id): 83 | 4 (≈ 4.6 µM)
isolate (source animal id): 88 | 4 (≈ 4.6 µM)
isolate (source animal id): 92 | 8 (≈ 9.2 µM)
isolate (source animal id): 93 | 4 (≈ 4.6 µM)
isolate (source animal id): 99 | 4 (≈ 4.6 µM)
isolate (source animal id): 100 | 8 (≈ 9.2 µM)
isolate (source animal id): 105 | 4 (≈ 4.6 µM)
isolate (source animal id): 107 | 4 (≈ 4.6 µM)
isolate (source animal id): 108 | 4 (≈ 4.6 µM)
isolate (source animal id): 109 | 8 (≈ 9.2 µM)
isolate (source animal id): 110 | 8 (≈ 9.2 µM)
isolate (source animal id): 117 | 4 (≈ 4.6 µM)
isolate (source animal id): 121 | 4 (≈ 4.6 µM)
isolate (source animal id): 123 | 8 (≈ 9.2 µM)
isolate (source animal id): 124 | 4 (≈ 4.6 µM)
isolate (source animal id): 127 | 4 (≈ 4.6 µM)
isolate (source animal id): 128 | 4 (≈ 4.6 µM)
isolate (source animal id): 130 | 8 (≈ 9.2 µM)
isolate (source animal id): 132 | 4 (≈ 4.6 µM)
isolate (source animal id): 135 | 4 (≈ 4.6 µM)
isolate (source animal id): 140 | 4 (≈ 4.6 µM)
isolate (source animal id): 141 | 4 (≈ 4.6 µM)
isolate (source animal id): 142 | > 16
isolate (source animal id): 144 | 8 (≈ 9.2 µM)
isolate (source animal id): 146 | 8 (≈ 9.2 µM)
isolate (source animal id): 147 | > 16
isolate (source animal id): 151 | 4 (≈ 4.6 µM)
isolate (source animal id): 153 | 16 (≈ 18.4 µM)
isolate (source animal id): 154 | > 16
isolate (source animal id): 156 | > 16
isolate (source animal id): 157 | 16 (≈ 18.4 µM)
isolate (source animal id): 176 | 16 (≈ 18.4 µM)
isolate (source animal id): 183 | 8 (≈ 9.2 µM)
isolate (source animal id): 186 | 8 (≈ 9.2 µM)
isolate (source animal id): 196 | 8 (≈ 9.2 µM)
isolate (source animal id): 198 | 8 (≈ 9.2 µM)
isolate (source animal id): 200 | 8 (≈ 9.2 µM)
isolate (source animal id): 206 | 8 (≈ 9.2 µM)
isolate (source animal id): 208 | 8 (≈ 9.2 µM)
isolate (source animal id): 210 | 4 (≈ 4.6 µM)
isolate (source animal id): 212 | ≤ 2
isolate (source animal id): 215 | 8 (≈ 9.2 µM)
isolate (source animal id): 216 | 16 (≈ 18.4 µM)
isolate (source animal id): 218 | 8 (≈ 9.2 µM)
isolate (source animal id): 219 | 8 (≈ 9.2 µM)
isolate (source animal id): 224 | 8 (≈ 9.2 µM)
isolate (source animal id): 228 | 8 (≈ 9.2 µM)
isolate (source animal id): 230 | 16 (≈ 18.4 µM)
isolate (source animal id): 233 | 4 (≈ 4.6 µM)
isolate (source animal id): 238 | ≤ 2
isolate (source animal id): 239 | 8 (≈ 9.2 µM)
isolate (source animal id): 241 | 8 (≈ 9.2 µM)
isolate (source animal id): 242 | 8 (≈ 9.2 µM)
isolate (source animal id): 243 | 8 (≈ 9.2 µM)
isolate (source animal id): 245 | ≤ 2
isolate (source animal id): 246 | 8 (≈ 9.2 µM)
isolate (source animal id): 247 | 16 (≈ 18.4 µM)
isolate (source animal id): 248 | ≤ 2
isolate (source animal id): 250 | 8 (≈ 9.2 µM)
isolate (source animal id): 251 | 8 (≈ 9.2 µM)
isolate (source animal id): 252 | 16 (≈ 18.4 µM)
isolate (source animal id): 254 | 8 (≈ 9.2 µM)
isolate (source animal id): 258 | 4 (≈ 4.6 µM)
isolate (source animal id): 259 | 4 (≈ 4.6 µM)
isolate (source animal id): 262 | ≤ 2
isolate (source animal id): 264 | ≤ 2
isolate (source animal id): 265 | ≤ 2
isolate (source animal id): 266 | 4 (≈ 4.6 µM)
isolate (source animal id): 267 | 4 (≈ 4.6 µM)
isolate (source animal id): 269 | 4 (≈ 4.6 µM)
isolate (source animal id): 271 | 4 (≈ 4.6 µM)
isolate (source animal id): 272 | ≤ 2
isolate (source animal id): 274 | ≤ 2
isolate (source animal id): 276 | ≤ 2
isolate (source animal id): 278 | ≤ 2
isolate (source animal id): 280 | ≤ 2
isolate (source animal id): 281 | 8 (≈ 9.2 µM)
isolate (source animal id): 283 | 4 (≈ 4.6 µM)
isolate (source animal id): 288 | 8 (≈ 9.2 µM)
isolate (source animal id): 291 | 4 (≈ 4.6 µM)
isolate (source animal id): 292 | 8 (≈ 9.2 µM)
isolate (source animal id): 296 | 4 (≈ 4.6 µM)
isolate (source animal id): 306 | 8 (≈ 9.2 µM)
isolate (source animal id): 336 | 8 (≈ 9.2 µM)
isolate (source animal id): 337 | 8 (≈ 9.2 µM)
isolate (source animal id): 341 | 8 (≈ 9.2 µM)
